Data published in US20260325473A1, “N-Beta-Hydroxybutyryl-Amino Acids and Related Compositions and Methods” (The Board of Trustees of the Leland Stanford Junior …, priority 2023, published 2026).

Assay: Keto-Med study, plasma metabolites
Type: in vivo
Settings: human; 4 weeks WFKD vs baseline
Description: Targeted metabolomics. Targeted measurements were performed using an Agilent 6470 triple quadrupole LC-MS instrument. MS analysis was performed using AJS in negative mode. The AJS source parameters were set as follows: the dry gas temperature was set at 250° C. with a gas flow of 12 l/min and the nebulizer pressure at 25 psi; the sheath gas temperature was set to 300° C. with the sheath gas flow set at 12 l/min; and the capillary voltage was set to 3,500 V. Separation of polar metabolites was performed as described above in the ‘Untargeted measurements of metabolites by LC-MS’ section. Multiple reaction monitoring was performed for the indicated metabolites with the listed dwell times, fragmentor voltage, collision energies, cell accelerator voltages and polarities. Quantification of the endogenous metabolite concentrations were performed by generating a standard curve with known concentrations of each metabolite. Metabolite standards were analyzed alongside the plasma samples using the same targeted triple quadrupole LC/MS method. A calibration standard curve generated from the metabolite standard concentrations and total peak areas were used to calculate the concentrations of each endogenous metabolite. The dilution of the plasma during the sample preparation was also taken into account for the quantification.
Keto-Med study. Keto-Med was a single-site, randomized, crossover, interventional trial comparing 2 metabolically distinct diets (well-formulated ketogenic diet, WFKD; and Mediterranean-plus diet, Med-Plus) among individuals with prediabetes and T2DM. Forty participants aged ≥18 years with prediabetes or T2DM followed the WFKD and the Med-Plus for 12 weeks each, in random order. Participants were randomly assigned into 1 of 2 different diet sequences: WFKD for 12 weeks (phase 1) and then the Med-Plus for 12 weeks (phase 2), or the opposite order. Ad libitum intake was advised, and participants were guided to follow 2 sets of dietary guidelines that shared 3 important similarities (incorporating nonstarchy vegetables and avoiding added sugars and refined grains) and 3 important differences (incorporating compared with avoiding legumes, fruits, and whole, intact grains). During the WFKD phase, participants were counseled to sustain nutritional ketosis by limiting carbohydrates to 20-50 g/day and keeping proteins to ~1.5 g/kg ideal body weight/day, with the remaining kcals coming from fats. Participants were also instructed to consume >3 servings/day of nonstarchy vegetables and maintain adequate mineral and fluid intake for the ketogenic state (sodium, 3-5 g/day; potassium, 3-4 g/day). […]

induction of plasma keto amino acids on WFKD: Robust induction
Structure (SMILES): CC(O)CC(=O)N[C@H](C(=O)O)C(C)C (stereo partly shown) [BHB-Val, N-betahydroxybutyryl-valine]
